Legend:
[1] = in vivo, cited from earlier work
[2] = Cytotoxicity in mock-infected cells (MTT/MTS); assay type: cell-based; details: human, read-out: CYTOTOX (EC50 μM)
Procedure: In the assay, HeLa (human cervical cancer cells), MRC-5 (human fetal lung fibroblast cells), and RD cells (derived from human rhabdomyosarcoma) were employed. For comparison, ribavirin (Riv), Pleconaril (pleco), and BTA-798 (BTA) were used as controls. Reagents were dissolved at a concentration of 10-40 mg/ml in 100% dimethyl sulfoxide (DMSO). Water-soluble reagents were dissolved in PBS (−) solution and stored at −20° C. On the day of the experiment, they were used in 3 fold to 5 fold concentrations in such a manner that the concentration of dimethyl sulfoxide in each well was between 0.5% and 1%.
For HeLa cells, the drugs were measured for EC50 (50% maximal effective concentration), which is the concentration of a drug inducing a response halfway between the baseline and maximum, using an MTT assay. With regard to RD and MRC-5 cells, CPE was determined using FDA (Fluorescein diacetate) or MTT. In order to determine the effect of drug toxicity on efficacy results, at the time of inoculation with the virus, mock-infection was also included. A virus-free medium was added to a cell culture, which was then subjected to the same treatment as the virus-infected cells inoculated with the virus. That is, the medium was removed after one hour of incubation, and dilutions of drugs in the medium were added once more. Following incubation for 2-3 days, the cells were observed under a microscope and the drugs were determined for CC50 (50% cytotoxic concentration) at which 50% of the cells were killed, using an MTT assay in which counts of viable cells in mock-infected wells containing drugs were compared to those of viable cells in control wells containing no drugs. In an FDA hydrolysis assay, FDA was added to each well after removal of the medium, and incubated for 20-30 min before fluorescence intensity was measured using a spectrofluorometer to determine CPE in the same manner as in MTT.
That is, the survival rate (% survival) of mock-infected cells for cytotoxicity measurement was calculated using the Mathematical Formula 1 below: Cell Drug=Survival by [A (Drug)−A (Background solution)/A (Cell control)−(Background×100% Solution)]
While 100% cell survival means no cytotoxicity of the drug, the highest cytotoxicity is reflected by 0% cell survival. The 50% cytotoxic concentration was defined as the concentration required to reduce the cell number by 50%. This concentration of the drug is represented as CC50. Higher values mean lower cytotoxicity.
The % CPE value for measuring cytotoxicity of a drug was calculated by Mathematical Formula 4 below: % CPE=100×[OD (CC)−OD (Virus+Compound)/OD (CC)−OD (Blank)] In Mathematical Formulae 3 and 4 above, • OD (CC) represents the OD of the background cell culture that is neither induced by a virus nor treated by chemical, • OD (VC) represents the OD of the control cell culture that is induced by a virus but not treated by chemical, • OD (Virus+Compound) represents the OD of the cell culture infected by a virus that has been treated with a concentrated compound, • OD (Compound) represents the OD of the cell culture that has been treated with a concentrated compound only, and OD (Blank) represents the OD of the well to which only the cell culture has been added.
The effective concentration (EC50) represents the concentration of a drug at which 50% of cells are allowed to survive by CPE of an induced virus, and the cytotoxicity concentration (CC50) represents the concentration of a drug at which a compound has killed 50% of cells, and they were calculated by the logarithmic interpolation.

[3] = system: coxsackievirus B4 (Cox B4); assay: CPE inhibition assay, coxsackievirus B4; assay type: cell-based; details: Enterovirus B
[4] = system: poliovirus 1 (PV1); assay: microbe, parasite or virus in culture; assay type: cell-based; details: Enterovirus C, read-out: PV1 (EC50 μM)
[5] = system: HRV B14; assay: CPE inhibition assay, HRV B14; assay type: cell-based; details: Human rhinovirus sp.
[6] = system: HRV A16; assay: CPE inhibition assay, HRV A16; assay type: cell-based; details: Human rhinovirus sp., read-out: A16_CPE (EC50 μM)
[7] = C15_C3 REP; details: human, C15 C3 REP (cell-based assay)
[8] = in vivo; cited from earlier work
[9] = cited from earlier work
[10] = system: 48 rhinovirus types and coxsackievirus A21. B3, enterovirus 70 and echovirus 11; details: coxsackievirus A21, B3, enterovirus 70, echovirus 11; cited from earlier work
[11] = in vivo; cited from earlier work; remark: listed apart in the source

Compound | CC50 [2] [µM] | EC50 [3] [µM] | EC50 [4] [µM] | EC50 [5] [µM] | EC50 [6] [µM] | CC50 [7] [µM] | other results
CCC(=O)C(CCCCCCOc1ccc(OC)cc1Cl)C(=O)CC [arildone] |  |  |  |  |  |  | bioavailability [1]: low bioavailability
CC(=O)N[C@]12C(=O)c3c(N)cccc3[C@@]1(O)Oc1cc(OC(F)(F)F)ccc12 (single isomer, unassigned) [Example 11] | ≥ 50 | 0.0011 |  |  |  |  | 
CC(=O)NC12C(=O)c3c(N)cccc3C1(O)Oc1cc(Cl)ccc12 (racemic) [Example 13, N-(1-amino-7-chloro-4b-hydroxy-10-oxo-4b,10-dihydro-9bH-indeno[1,2-b]benzofuran-9b-yl)acetamide] | ≥ 50 | 0.00267 | 0.295 |  |  |  | 
CC(=O)N[C@@]12C(=O)c3c(N)cccc3[C@]1(O)Oc1cc(C3CC3)ccc12 (single isomer, unassigned) [Example 9] | ≥ 50 | 0.0862 |  | 3.21 | 50 | 50 | 
Cc1cc(CCCCCCCOc2ccc(C3=NCCO3)cc2)on1 [disoxaril] |  |  |  |  |  |  | metabolization and excretion [8]: rapid metabolization and excretion; bioavailability [1]: low bioavailability
CC(=O)N[C@@]12C(=O)c3c(N)cccc3[C@]1(O)Oc1cc(Cl)ccc12 (single isomer, unassigned) [Example 15] | ≥ 50 | 0.29 |  |  |  | 25 | 
CC(C)S(=O)(=O)n1c(N)nc2ccc(/C(=N/O)c3ccccc3)cc21 [Enviroxime] |  |  |  |  |  |  | therapeutic effects in clinical studies ([9]; clinical studies): insignificant or few therapeutic effects; pharmacokinetics in clinical studies ([9]; in vivo): bad pharmacokinetics; side effects in clinical studies ([9]; in vivo): unwanted side effects
COc1ccc2c(c1)O[C@]1(O)c3cccc(N)c3C(=O)[C@]21NC(C)=O (single isomer, unassigned) [Example 23] | ≥ 50 | 0.00293 |  |  |  |  | 
CCOC(=O)/C=C/[C@H](C[C@@H]1CCNC1=O)NC(=O)[C@@H](CC(=O)[C@@H](NC(=O)c1cc(C)on1)C(C)C)Cc1ccc(F)cc1 [AG 7088] |  |  |  |  |  |  | effect in the cell culture [10]: nanomolar concentration range
CC(=O)N[C@@]12C(=O)c3c(N)cccc3[C@]1(O)Oc1cc(OC(F)(F)F)ccc12 (single isomer, unassigned) [Example 12] | ≥ 50 | 0.188 | 0.015 | 0.016 | 1.89 |  | 
CC(=O)N[C@]12C(=O)c3c(N)cccc3[C@@]1(O)Oc1cc(C(C)C)ccc12 (single isomer, unassigned) [Example 1] | ≥ 50 | 0.00061 | 0.015 | 0.016 | 1.89 | 35.1 | 
CC(=O)NC12C(=O)c3c(N)cccc3C1(O)Oc1cc(OC(F)(F)F)ccc12 (racemic) [Example 10, N-(1-amino-4b-hydroxy-10-oxo-7-(trifluoromethoxy)-4b,10-dihydro-9bH-indeno[1,2-b]benzofuran-9b-yl)acetamide] | ≥ 50 | 0.00303 | 0.335 | 0.056 | 39.8 | 50 | 
CC(=O)N(C)C12C(=O)c3c(N)cccc3C1(O)Oc1cc(C(F)(F)F)ccc12 (stereo not shown) [Example 21, N-(1-amino-4b-hydroxy-10-oxo-7-(trifluoromethyl)-4b,10-dihydro-9bH-indeno[1,2-b]benzofuran-9b-yl)-N-methylacetamide] | ≥ 50 | 0.0032 |  |  |  | 25 | 
CC(=O)N[C@]12C(=O)c3c(N)cccc3[C@@]1(O)Oc1cc(C(F)(F)F)ccc12 (single isomer, unassigned) [Example 4] | ≥ 50 | 0.00059 | 0.041 |  |  |  | 
Cc1cc(CCCOc2c(C)cc(-c3noc(C(F)(F)F)n3)cc2C)on1 [Pleconaril] |  |  |  |  |  |  | oral bioavailability ([1]; po): very good oral bioavailability
CC(=O)N[C@@]12C(=O)c3c(N)cccc3[C@]1(O)Oc1cc(C)ccc12 (single isomer, unassigned) [Example 18] | ≥ 50 | 0.383 |  |  |  | 25 | 
CC(=O)N[C@]12C(=O)c3c(N)cccc3[C@@]1(O)Oc1cc(C3CC3)ccc12 (single isomer, unassigned) [Example 8] | ≥ 50 | 0.00093 | 0.028 | 0.025 | 7.85 | 50 | 
CC(=O)N[C@]12C(=O)c3c(N)cccc3[C@@]1(O)Oc1cc(Br)ccc12 [Example 6, N-((4bR,9bR)-1-amino-7-bromo-4b-hydroxy-10-oxo-4b,10-dihydro-9bH-indeno[1,2-b]benzofuran-9b-yl)acetamide] | ≥ 50 | 0.00098 |  | 0.049 | 43.3 | 50 | 
CC(=O)NC12C(=O)c3c(N)cccc3C1(O)Oc1cc(C)ccc12 (racemic) [Example 16, N-(1-amino-4b-hydroxy-7-methyl-10-oxo-4b,10-dihydro-9bH-indeno[1,2-b]benzofuran-9b-yl)acetamide] | ≥ 50 | 0.00374 |  | 0.076 | 50 |  | 
CC(=O)N[C@]12C(=O)c3c(N)cccc3[C@@]1(O)Oc1cc(C)ccc12 (single isomer, unassigned) [Example 17] | ≥ 50 | 0.00174 | 0.11 |  |  |  | 
CC(=O)N[C@]12C(=O)c3c(N)cccc3[C@@]1(O)Oc1ccc(C)cc12 (single isomer, unassigned) [Example 20] | ≥ 50 | 0.00443 | 2.17 |  |  |  | 
CC(=O)N[C@]12C(=O)c3c(N)cccc3[C@@]1(O)Oc1cc(Cl)ccc12 (single isomer, unassigned) [Example 14] | ≥ 50 | 0.00182 |  |  |  |  | 
CC(=O)NC12C(=O)c3c(N)cccc3C1(O)Oc1cc(C3CC3)ccc12 (racemic) [Example 7, N-(1-amino-7-cyclopropyl-4b-hydroxy-10-oxo-4b,10-dihydro-9bH-indeno[1,2-b]benzofuran-9b-yl)acetamide] | ≥ 50 | 0.00168 |  | 0.016 | 14.7 | 50 | 
CC(=O)N[C@@]12C(=O)c3c(N)cccc3[C@]1(O)Oc1cc(C(F)(F)F)ccc12 (single isomer, unassigned) [Example 5] | ≥ 50 | 0.0442 | 9.22 |  |  | 25 | 
CC(=O)NC12C(=O)c3c(N)cccc3C1(O)Oc1ccc(C)cc12 (racemic) [Example 19, N-(1-amino-4b-hydroxy-8-methyl-10-oxo-4b,10-dihydro-9bH-indeno[1,2-b]benzofuran-9b-yl)acetamide] | ≥ 50 | 0.00871 | 3.24 | 0.666 | 50 | 25 | 
CC(=O)NC12C(=O)c3c(N)cccc3C1(O)Oc1cc(C(F)(F)F)ccc12 (racemic) [Example 3, N-(1-amino-4b-hydroxy-10-oxo-7-(trifluoromethyl)-4b,10-dihydro-9bH-indeno[1,2-b]benzofuran-9b-yl)acetamide] | ≥ 50 | 0.00201 |  | 0.019 | 50 | 21.4 | 
Cc1cc(CCCCCOc2c(Cl)cc(C3=NCCO3)cc2Cl)on1 [WIN 54954] |  |  |  |  |  |  | side effects [11]: skin rash; metabolization and excretion [8]: rapid metabolization and excretion
